Read-outs that look alike come from different tables or passages of the source.
Columns and labels:
[1] = tested on: LPS-induced NO production in RAW 264.7 cells; test: LPS-induced NO production (Griess reagent); assay type: cell-based, murine; set-up: NO inhibition rate: dose or concentration left out as unconfirmed; key to Inhibition of LPS-induced NO production, result in words (na / tox): na: no activity at the concentration of 40 μM; toxicity; conditions: for NO inhibition rate / IC50: Griess reagent, means ± SD (n = 3); for IC50: Mus musculus, RAW264.7, LPS 500 ng/mL 24 h, read-out: IC50, inhibition of LPS-induced NO production; for Inhibition of LPS-induced NO production, result in words (na / tox): na at 40 μM
Method: Despite extensive research efforts focused on the treatment ALI, no specific drugs have been identified thus far. In the quest to discover innovative anti-inflammatory drugs for ALI treatment, we assessed the anti-inflammatory potential of pyrrolo[2,1-a]isoquinoline aryl ketones were evaluated through their capacity to suppress LPS-induced NO release in RAW264.7 cells.[21,28] Griess reagent was used to quantify the levels of LPS-induced NO release in RAW264.7 cells following treatment with the synthesized compounds.
The quantification of NO production in activated RAW264.7 cells was achieved by measuring the concentration of nitrite, which serves as a stable oxidative metabolite of NO, employing a previously established protocol.[37] RAW264.7 cells were cultured overnight in 48-well plates at a cellular density of 5 × 10^4 cells per milliliter. […] Briefly, Griess reagents I and II were mixed with 50 μL of the culture medium supernatant, and the resultant mixture was analyzed spectrophotometrically at a wavelength of 540 nm using an automated microplate reader. The NO inhibition rate was calculated using the following formula: NO inhibition rate = [(OD540 − compound OD540)/(OD540 − blank OD540)] × 100%.

[2] = CCK8 cell viability (cytotoxicity) assay; assay type: cell-based, murine; conditions: mouse, RAW264.7 cells, means ± SD (n = 3)
Method: The toxic effect of synthesized compounds was evaluated on RAW264.7 cells utilizing a CCK8 assay kit.
RAW264.7 cells were seeded in 96-well plates and incubated with various compounds, each at a uniform concentration of 50 μM, for 24 h. Following this incubation, CCK8 was added to the 96-well plates and incubated at 37 °C for 1 h. The control group was cultivated solely in fresh medium. The absorbance at 450 nm was quantified using an enzyme marker.

COX-2 = conditions: cited from earlier work
COX-1 = tested on: COX-1; set-up: method as in PMID 32358780, PMID 30243628; conditions: cited from earlier work
PPAR-γ = tested on: PPAR-γ; set-up: method as in PMID 22489042; conditions: cited from earlier work
PPAR-δ = tested on: PPAR-δ; set-up: method as in PMID 22489042; conditions: cited from earlier work
PPAR-α = tested on: PPAR-α; set-up: method as in PMID 22489042; conditions: cited from earlier work

## O=C(c1ccccc1Cl)c1ccc2c3ccccc3ccn12 [3l]
[1]
  NO inhibition rate: 38.2 ± 5.1%
[2]
  viability at 24 h, 50 µM: 99.3 ± 8.8%

## O=C(c1ccccc1)c1ccc2c3ccccc3ccn12 [3d]
[1]
  NO inhibition rate: 48.0 ± 1.3%
[2]
  viability at 24 h, 50 µM: 96.8 ± 6.6%

## Cc1cccc(C(=O)c2ccc3c4ccccc4ccn23)c1 [3n]
[1]
  NO inhibition rate: 46.8 ± 3.1%

## N#Cc1ccc2c3ccccc3ccn12 [3c]
[1]
  NO inhibition rate: 46.9 ± 1.8%
[2]
  viability at 24 h, 50 µM: 97.1 ± 2.6%

## COC(=O)c1ccc2c3ccccc3ccn12 [3a]
[1]
  IC50: 19.9 ± 0.71 µM
[2]
  viability at 24 h, 50 µM: 92.4 ± 6.3%

## COc1ccc(C(=O)c2ccc3c4ccccc4ccn23)cc1 [3e]
[2]
  viability at 24 h, 50 µM: 88.7 ± 5.8%

## CC(C)(C)OC(=O)c1ccc2c3ccccc3ccn12 [3b]
[1]
  NO inhibition rate: 42.0 ± 4.2%
[2]
  viability at 24 h, 50 µM: 95.6 ± 2.9%

## C=C(C)[C@@H]1CC[C@]2(C(=O)O)CC[C@]3(C)[C@H](CC[C@@H]4[C@@]5(C)CC[C@H](O)C(C)(C)[C@@H]5CC[C@]43C)[C@@H]12 [Betulinic acid, reference compound]
[1]
  IC50: 11.9 ± 1.3 µM
[2]
  viability at 24 h, 50 µM: 85.8 ± 7.4%

## O=C(c1cccc(Cl)c1)c1ccc2c3ccccc3ccn12 [3o]
[1]
  NO inhibition rate: 39.2 ± 7.1%
[2]
  viability at 24 h, 50 µM: 91.5 ± 8.5%

## Cc1ccc(C(=O)c2ccc3c4ccccc4ccn23)cc1 [3f]
[1]
  Inhibition of LPS-induced NO production, result in words (na / tox): tox
[2]
  viability at 24 h, 50 µM: 53.6 ± 6.4%

## CC(C(=O)O)c1cccc(C(=O)c2ccccc2)c1 (stereo not shown) [Ketoprofen]
COX-2; read-out: IC50 for COX-2
  IC50: 0.026 µM
COX-1
  IC50: 0.002 µM

## O=C(c1ccc(C(F)(F)F)cc1)c1ccc2c3ccccc3ccn12 [3j]
[2]
  viability at 24 h, 50 µM: 89.9 ± 5.6%

## O=C(c1ccc(Cl)cc1)c1ccc2c3ccccc3ccn12 [3h]
[1]
  NO inhibition rate: 39.6 ± 5.3%
[2]
  viability at 24 h, 50 µM: 101 ± 3%

## O=C(c1ccc2ccccc2c1)c1ccc2c3ccccc3ccn12 [3p]
[2]
  viability at 24 h, 50 µM: 93.2 ± 4.7%

## O=C(c1ccccc1O)c1ccc2c3ccccc3ccn12 [3m]
[1]
  Inhibition of LPS-induced NO production, result in words (na / tox): tox
[2]
  viability at 24 h, 50 µM: 46.4 ± 6.5%

## CC(C)(Oc1ccc(C(=O)c2ccc(Cl)cc2)cc1)C(=O)O [Fenofibric acid]
COX-2; read-out: IC50, COX-2 inhibitory activity
  IC50: 0.048 µM
PPAR-γ
  EC50: […]
PPAR-δ
  EC50: […]
PPAR-α
  EC50: […]

## O=C(c1ccc(Br)cc1)c1ccc2c3ccccc3ccn12 [3i]
[2]
  viability at 24 h, 50 µM: 95.9 ± 7.7%

— article PMC12590356, “Novel pyrrolo[2,1-a]isoquinoline aryl ketones attenuate carbon nanotube-induced acute lung injury through NF-κB pathway inhibition” (RSC Advances, 2025)
